{"source": "patent US9907797B2", "about": "“Combination therapies for overcoming resistance to mitotic agents during chemotherapy” (EMORY UNIVERSITY, priority 2014, dated 2018)", "key": {"PARP1": {"target": "PARP1 (Homo sapiens, UniProt P09874)", "sequence (P09874 whole entry, species assumed)": "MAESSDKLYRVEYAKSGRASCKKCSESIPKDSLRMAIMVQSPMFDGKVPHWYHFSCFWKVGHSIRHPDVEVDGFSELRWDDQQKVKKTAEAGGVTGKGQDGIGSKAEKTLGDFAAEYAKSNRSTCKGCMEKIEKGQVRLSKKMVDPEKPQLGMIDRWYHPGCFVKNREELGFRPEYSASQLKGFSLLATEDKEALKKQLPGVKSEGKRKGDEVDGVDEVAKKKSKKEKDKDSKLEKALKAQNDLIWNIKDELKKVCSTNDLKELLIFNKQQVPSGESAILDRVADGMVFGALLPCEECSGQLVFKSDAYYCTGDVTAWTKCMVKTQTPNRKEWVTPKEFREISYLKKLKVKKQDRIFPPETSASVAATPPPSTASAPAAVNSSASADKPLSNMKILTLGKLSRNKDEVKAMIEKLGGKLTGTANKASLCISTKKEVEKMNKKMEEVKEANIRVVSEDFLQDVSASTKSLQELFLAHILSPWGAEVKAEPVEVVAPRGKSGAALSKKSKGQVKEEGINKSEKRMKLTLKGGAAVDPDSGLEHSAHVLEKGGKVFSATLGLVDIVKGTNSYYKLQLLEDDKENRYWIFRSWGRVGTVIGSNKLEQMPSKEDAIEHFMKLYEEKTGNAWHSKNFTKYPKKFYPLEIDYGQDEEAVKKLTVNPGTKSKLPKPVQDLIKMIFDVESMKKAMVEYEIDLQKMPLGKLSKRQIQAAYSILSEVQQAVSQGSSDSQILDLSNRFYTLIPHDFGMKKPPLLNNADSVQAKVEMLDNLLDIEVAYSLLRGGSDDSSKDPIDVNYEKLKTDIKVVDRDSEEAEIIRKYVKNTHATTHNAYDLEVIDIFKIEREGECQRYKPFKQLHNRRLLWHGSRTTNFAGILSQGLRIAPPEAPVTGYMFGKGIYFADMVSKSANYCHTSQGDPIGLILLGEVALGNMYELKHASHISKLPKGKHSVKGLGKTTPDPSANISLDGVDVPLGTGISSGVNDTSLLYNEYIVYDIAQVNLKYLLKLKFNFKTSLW", "assay": "In vitro parylation studies", "format": "biochemical"}, "A549 cells": {"test_system": "A549 cells", "assay": "Cell viability assay, A3 with docetaxel", "format": "cell-based"}, "[1]": {"test_system": "CHFR expressing cell lines", "assay": "Colony formation assays on a panel of cell lines of different cancer types", "format": "cell-based", "procedure": "Various cell lines of different tissues of origin and with different CHFR expression status were exposed to 1 hour of docetaxel and 72 hours of ‘A3’. Effects were defined as 1−colony count (treatment)/colony count (control). The nature of the interaction between the two compounds was analyzed by the Bliss additivity method. […] For subsequent colony formation assays, cell lines were characterized into CHFR expressing vs. CHFR deficient cell lines by Western-Blot.\nFinally, colony formation assays were performed on a panel of cell lines of different cancer types such as lung-, breast-, and colon cancer."}, "[2]": {"assay": "Pharmacokinetics, plasma concentrations by LC/MS/MS", "format": "in vivo", "conditions": "CD1 mice", "procedure": "The in vivo properties of ‘A3’ were evaluated. The pharmacokinetics of ‘A3’ after a single oral (25 mg/kg) and intravenous (10 mg/kg) dose of in CD1 mice were determined. Plasma was obtained at pre-specified time points (15 min to 24 hours) and ‘A3’ concentrations were determined by LC/MS/MS. […] Oral bioavailability of ‘A3’ was insignificant. The time-point of maximal CHFR suppression at 4 hrs follow the peak in A3 plasma levels with some delay."}, "[3]": {"assay": "Toxicity in treated xenograft mice", "format": "in vivo", "conditions": "combination treatment with A3 and docetaxel, 10 days after treatment"}, "CHFR [4]": {"target": "T1, CHFR (Homo sapiens, UniProt Q96EP1)", "T1 sequence (Q96EP1 1-664)": "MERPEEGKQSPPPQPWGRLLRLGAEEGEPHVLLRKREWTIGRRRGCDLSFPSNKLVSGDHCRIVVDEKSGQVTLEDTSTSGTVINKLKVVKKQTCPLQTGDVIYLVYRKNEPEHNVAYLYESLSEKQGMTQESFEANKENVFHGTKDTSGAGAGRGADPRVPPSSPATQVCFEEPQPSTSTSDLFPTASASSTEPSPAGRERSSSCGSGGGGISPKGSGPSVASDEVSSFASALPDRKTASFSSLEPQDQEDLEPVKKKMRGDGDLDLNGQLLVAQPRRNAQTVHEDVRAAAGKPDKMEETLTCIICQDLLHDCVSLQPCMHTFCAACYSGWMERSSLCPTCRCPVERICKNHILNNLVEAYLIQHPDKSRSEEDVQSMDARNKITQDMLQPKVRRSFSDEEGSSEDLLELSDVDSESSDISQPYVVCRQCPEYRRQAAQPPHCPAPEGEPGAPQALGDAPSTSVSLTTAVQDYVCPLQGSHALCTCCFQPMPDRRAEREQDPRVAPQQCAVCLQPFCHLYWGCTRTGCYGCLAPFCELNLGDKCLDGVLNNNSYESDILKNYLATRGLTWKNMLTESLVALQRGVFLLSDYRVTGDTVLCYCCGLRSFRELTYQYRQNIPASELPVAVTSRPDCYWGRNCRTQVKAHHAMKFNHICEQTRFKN", "assay": "CHFR levels by western blotting of whole cell extracts", "format": "cell-based", "set-up": "endogenous in cells; host or cells: A549", "conditions": "10 uM, 24 hours, A549 cells", "procedure": "The 10 compounds with the highest docking scores were tested for their ability to regulate CHFR expression levels.\nIn an attempt to generate possible lead compounds for the pharmacologic inhibition of the CHFR-PARP1 interaction, a high throughput computational screen of 5,256,508 chemical structures in the MCULE database of purchasable compounds using the AutoDockVina algorithm against the published crystal structure of the CHFR-PBZ domain was performed. The 10 most promising ‘hits’ based on Autodock Vina docking scores (<−9.7) were selected for further characterization. Commercially available compounds were tested for their impact on nuclear CHFR levels (FIG. 3A). Several compounds, including ‘A2’, ‘A3’, ‘A4’ and ‘A6’ decreased CHFR levels assayed by western blotting of whole cell extracts. The impact of the above referenced compounds on the PARP1/CHFR interaction were evaluated. HEK293 cells were transfected with GST tagged PARP1 and the interaction with CHFR determined in pull down assays for those 4 compounds. […] In contrast to treatment with ABT-888, ‘A3’ completely disrupted the interaction between GST-tagged PARP-1 and CHFR (FIG. 3B). […]"}, "CHFR [5]": {"target": "T1, CHFR", "assay": "CHFR protein levels in A549 nuclear extracts", "format": "cell-based", "set-up": "endogenous in cells; host or cells: A549", "procedure": "HEK293 cells were stably transfected with the pDEST27-AR-CHFR construct. Deletion of the RING domain in this construct leads to both stable CHFR and PARP1 expression that is unaltered by treatment with increasing concentrations of ‘A3’ for 16 hours. Nonetheless, the interaction between glutathione-affinity purified CHFR-ΔR and PARP1 was decreased by ‘A3’ in a dose dependent fashion. A549 cells were incubated for 16.5 hrs with MG132 and indicated A3 concentration for 16 hrs. At 10 uM A3 concentration CHFR staining is diminished in the nucleus Cells are stained with CHFR.\nIn an attempt to generate possible lead compounds for the pharmacologic inhibition of the CHFR-PARP1 interaction, a high throughput computational screen of 5,256,508 chemical structures in the MCULE database of purchasable compounds using the AutoDockVina algorithm against the published crystal structure of the CHFR-PBZ domain was performed. The 10 most promising ‘hits’ based on Autodock Vina docking scores (<−9.7) were selected for further characterization. Commercially available compounds were tested for their impact on nuclear CHFR levels (FIG. 3A). […] The impact of the above referenced compounds on the PARP1/CHFR interaction were evaluated. HEK293 cells were transfected with GST tagged PARP1 and the interaction with CHFR determined in pull down assays for those 4 compounds. […]"}, "CHFR [6]": {"target": "T1, CHFR", "assay": "CHFR immunohistochemistry in A549 tumor xenografts", "format": "in vivo, nude mice", "set-up": "endogenous in cells; host or cells: A549 cells grown as flank xenografts in nude mice", "conditions": "single ip injection 10 mg/kg", "procedure": "4 hrs after i.p. injection a significant reduction in nuclear CHFR staining was observed, indicating an in vivo reproducible pharmacodynamic effect of ‘A3’.\n‘A3’ is capable of disrupting the interaction between CHFR and PARP1 in vitro, leading to a depletion of CHFR expression and to sensitization towards the cytotoxic effects of taxanes. The impact of ‘A3’ administration on lung tumor xenografts was evaluated. A549 NSCLC cells were injected into the flank of nude mice and allowed to establish for approximately 14 days. Once tumors had reached a volume about 100 mm3, mice received a single ip injection of ‘A3’ at 10 mg/kg. Mice were then euthanized at 1, 2, 4 and 24 hours after and CHFR in the xenografts was analyzed by immunohistochemistry (FIG. 5A)."}}}
{"smiles": "Cc1ccc(N2C(=O)NC(=O)C(=Cc3cn(Cc4ccccc4)c4ccccc34)C2=O)cc1C", "note": "[A3, 5-((1-benzyl-1H-indol-3-yl)methylene)-1-(3,4-dimethylphenyl)pyrimidine-2,4,6(1H,3H,5H)-trione]", "values": [{"measurement": "PARP1 auto-parylation", "setting": "PARP1", "value": "no impact on PARP1 auto-parylation"}, {"measurement": "nature of interaction of A3 and docetaxel by combination index", "setting": "A549 cells; 10 and 20 uM/nM concentrations", "value": "synergistic effects"}, {"measurement": "cell viability, combination treated cells", "setting": "A549 cells; A3 plus docetaxel, 10 and 20 nM concentrations, 72 hours, p<0.01", "value": "statistically significantly decreased viability"}, {"measurement": "Combination index (CI)", "setting": "A549 cells; A3 with docetaxel, A549 cells, 72 hours, Chou-Talaley method", "value": "< 1"}, {"measurement": "synergy between A3 and docetaxel, colony formation (Bliss additivity)", "setting": "[1]; CHFR expressing cell line H460", "value": "strong synergy"}, {"measurement": "synergy between A3 and docetaxel, colony formation (Bliss additivity)", "setting": "[1]; CHFR expressing cell lines other than EKVX, 1 hour docetaxel, 72 hours A3", "value": "synergy between ‘A3’ and docetaxel was observed for all other CHFR expressing cell lines"}, {"measurement": "distribution", "setting": "[2]; following intravenous dosing 10 mg/kg", "value": "rapidly and widely distributed"}, {"measurement": "relative bioavailability from dose normalized AUC values", "setting": "[2]; single oral (25 mg/kg) and intravenous (10 mg/kg) dose", "value": 19.5, "unit": "%"}, {"measurement": "Oral bioavailability", "setting": "[2]; single oral dose 25 mg/kg", "value": "insignificant"}, {"measurement": "hematologic, hepatic and renal toxicity", "setting": "[3]", "value": "not associated with a significant increase in hematologic, hepatic and renal toxicity"}, {"measurement": "CHFR expression", "setting": "CHFR [4]", "value": "reduced CHFR expression"}, {"measurement": "CHFR protein levels", "setting": "CHFR [5]; 10 uM, 16 hrs, A549", "value": "complete disappearance of CHFR"}, {"measurement": "CHFR protein levels", "setting": "CHFR [5]; low concentrations of A3", "value": "initial increase in CHFR protein levels"}, {"measurement": "nuclear CHFR expression in xenografts", "setting": "CHFR [6]; 24 hr time point", "value": "restored to baseline levels"}, {"measurement": "nuclear CHFR expression in xenografts", "setting": "CHFR [6]; after 4 hours", "value": "Significant suppression of nuclear CHFR expression"}]}
